Assay results published in the NIST ThermoML archive (doi:10.1007/s10765-007-0241-8).

Details: Liquid; for thermal conductivity: Hot wire method; for mass density: Constant-volume piezometry

CCCCn1cc[n+](C)c1.F[P-](F)(F)(F)(F)F [1-butyl-3-methylimidazolium hexafluorophosphate]
Details | mass density, 100 kPa [kg/m3] | mass density, 10000 kPa [kg/m3] | mass density, 20000 kPa [kg/m3] | thermal conductivity, 0.1 kPa [W/m/K] | thermal conductivity, 10 kPa [W/m/K] | thermal conductivity, 20 kPa [W/m/K]
294.9 K | 1369 | 1373 | 1378 | 0.145 | 0.146 | 0.148
315 K | 1352 | 1357 | 1362 | 0.145 | 0.146 | 0.147
335.1 K | 1336 | 1341 | 1347 | 0.144 | 0.145 | 0.147

CCCCCCCC[n+]1ccn(C)c1.F[P-](F)(F)(F)(F)F [1-octyl-3-methylimidazolium hexafluorophosphate]
Details | mass density, 295.1 K [kg/m3] | mass density, 315.1 K [kg/m3] | mass density, 335.2 K [kg/m3] | thermal conductivity, 295.1 K [W/m/K] | thermal conductivity, 315.1 K [W/m/K] | thermal conductivity, 335.2 K [W/m/K]
100 kPa | 1236 | 1222 | 1207 | 0.145 | 0.145 | 0.144
10000 kPa | 1243 | 1228 | 1213 | 0.147 | 0.146 | 0.146
20000 kPa | 1249 | 1234 | 1219 | 0.147 | 0.147 | 0.147

CCCCCCn1cc[n+](C)c1.F[P-](F)(F)(F)(F)F [1-hexyl-3-methylimidazolium hexafluorophosphate]
Details | mass density, 294.1 K [kg/m3] | mass density, 315.1 K [kg/m3] | mass density, 335.2 K [kg/m3] | thermal conductivity, 294.1 K [W/m/K] | thermal conductivity, 315.1 K [W/m/K] | thermal conductivity, 335.2 K [W/m/K]
100 kPa | 1294 | 1278 | 1262 | 0.145 | 0.145 | 0.144
10000 kPa | 1300 | 1284 | 1268 | 0.147 | 0.146 | 0.146
20000 kPa | 1306 | 1290 | 1274 | 0.148 | 0.148 | 0.147

Cc1ccccc1 [toluene]
thermal conductivity [W/m/K]
Details | 294.2 K | 314.1 K | 334.4 K
100 kPa | 0.132 | 0.127 | 0.122
10000 kPa | 0.136 | 0.131 | 0.126
20000 kPa | 0.139 | 0.135 | 0.129

CCCCCCCC [octane]
100 kPa
Details | thermal conductivity [W/m/K]
294.5 K | 0.126
314.7 K | 0.121
334.8 K | 0.115
